# Results taken from US20210122746A1, “FEBRIFUGINE DERIVATIVES” (BRISTOL-MYERS SQUIBB COMPANY, priority 2017, published 2021).
# Where a name gives a salt, the structure may show the parent alone.
# Biological target: T1, human ProRS (prolyl tRNA synthetase moiety of glutamyl prolyl tRNA synthetase) (Homo sapiens, UniProt P07814)
# T1 construct: The prolyl tRNA synthetase moiety (ProRS) in the cDNA of glutamyl prolyl tRNA synthetase was subcloned; 6xHis (N, cleaved yes); made in house; host or cells: E. coli BL21 (DE3)
# T1 sequence (P07814 1007-1512 limits assumed): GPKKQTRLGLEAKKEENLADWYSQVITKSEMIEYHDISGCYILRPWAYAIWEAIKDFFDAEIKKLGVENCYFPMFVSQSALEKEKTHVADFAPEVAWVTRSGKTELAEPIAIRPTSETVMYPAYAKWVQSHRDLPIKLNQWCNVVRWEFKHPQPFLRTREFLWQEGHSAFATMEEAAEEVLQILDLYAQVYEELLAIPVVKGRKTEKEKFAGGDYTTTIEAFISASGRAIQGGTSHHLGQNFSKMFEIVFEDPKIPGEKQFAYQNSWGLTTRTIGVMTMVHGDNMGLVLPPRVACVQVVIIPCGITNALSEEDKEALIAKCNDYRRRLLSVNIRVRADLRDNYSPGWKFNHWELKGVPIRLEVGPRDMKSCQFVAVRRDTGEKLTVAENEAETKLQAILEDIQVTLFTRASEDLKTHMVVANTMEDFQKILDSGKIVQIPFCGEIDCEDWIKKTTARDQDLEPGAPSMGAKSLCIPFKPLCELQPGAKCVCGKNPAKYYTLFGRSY
# Test: Assay for inhibitors of prolyl tRNA synthetase activity (ProRS assay, labeled proline incorporation)
# Format: biochemical
# Conditions: ProRS 20 nM, compounds 10 μM to 0.5 nM, 10 min at 37° C.; read-out: EPR IC50
# Description: In order to establish the activities of the compounds highlighted above, we determined extent of inhibition of prolyl tRNA synthetase activity in dose response curves to obtain IC50 values.
# The prolyl tRNA synthetase moiety (ProRS) in the cDNA of glutamyl prolyl tRNA synthetase was subcloned, tagged with a single biotin, purified and used in the assay. Briefly, human ProRS with a 6× N-terminal His tag in pET28N with TVMV BioP was transformed in E. coli BL21 (DE3) cells, selected, overexpressed and purified using a Ni Seph 6 FF XK 16/20 column in the first stage. Ni-NTA eluates were pooled and treated with TVMV protease, and biotinylated using d-Biotin, MgCl2, ATP and the BirA enzyme. This was rerun through a Ni column as before. The eluates were further enriched and purified using membrane ultrafiltration and a SuperDex 200 XK 16/60 column, and peak fractions were confirmed by SDS-PAGE prior to protein amount determination, aliquoting and storage at −80° C.
# ProRS assay was performed in 96 well plates in a final reaction volume of 20 μl, using staggered additions of Tris-Cl (pH 7.5, 60 mM), dithiothreitol (2 mM), ATP (5 mM, pH 7.0), MgCl2 6 mM), ProRS (20 nM, with pre-determined active fraction range) and bovine tRNA (20 μg). Controls and compounds, at various concentrations (10 μM to 0.5 nM), were incubated on ice with enzyme mix for 15 min followed by addition of proline (non-labeled and labeled, 3.96 and 1.04 μM (1 μCi) respectively) to initiate the reaction. Reaction was carried out for 10 min at 37° C. and terminated by addition of TCA (10%, 100 μl). Reaction mix was collected on a Whatman GF/B filter using a vacuum filtration manifold. This filter was washed 3 times with 5% TCA followed by 2 washes with ethanol, air dried, and read using a liquid scintillation counter (TopCount NXT) using MicroScint O. IC50 values were calculated and analyzed using ToolSet (4-parameter plot) and depicted herein.
row,IC50 [nM],SMILES
1,12,"Cc1cc(-c2cccnc2)nc2c(=O)n(CC(=O)C[C@H]3NCCC[C@@H]3O)cnc12 [Example 17, 3-{3-[(2R,3S)-3-hydroxypiperidin-2-yl]-2-oxopropyl}-8-methyl-6-(pyridin-3-yl)pyrido[3,2-d]pyrimidin-4(3H)-one trihydrochloride]"
2,140,"Cc1cc(C(C)C)cc2c(=O)n(CC(=O)C[C@@H]3CCCCN3)cnc12 [Example 18, (S)-6-isopropyl-8-methyl-3-{2-oxo-3-[piperidin-2-yl]propyl}quinazolin-4(3H)-one hydrochloride]"
3,159,"Cc1cc(C(F)(F)F)cc2c(=O)n(CC(=O)C[C@@H]3CCCCN3)cnc12 [Example 19, (S)-8-methyl-3-{2-oxo-3-[piperidin-2-yl]propyl}-6-(trifluoromethyl)quinazolin-4(3H)-one 2,2,2-trifluoroacetate]"
4,60,"O=C(C[C@@H]1CCCCN1)Cn1cnc2ccncc2c1=O [Example 20, (S)-3-{2-oxo-3-[piperidin-2-yl-propyl-pyrido(4,3-d)]}pyrimidin-4(3H)-one-dihydrochloride]"
5,491,"Cc1cc(C)c2ncn(C[C@@H](O)C[C@H]3NCCC[C@@H]3O)c(=O)c2n1 [Example 21, 3-{(S)-2-hydroxy-3-[(2R,3S)-3-hydroxypiperidin-2-yl]propyl}-6,8-dimethylpyrido[3,2-d]pyrimidin-4(3H)-one dihydrochloride]"
6,20,"O=c1c2nc(-c3cccc(Cl)c3)ccc2ncn1C[C@@H](O)C[C@H]1NCCC[C@@H]1O [Example 22, 6-(3-Chlorophenyl)-3-{(S)-2-hydroxy-3-[(2R,3S)-3-hydroxypiperidin-2-yl]propyl}pyrido[3,2-d]pyrimidin-4(3H)-one dihydrochloride]"
7,8,"O=c1c2nc(-c3cccc(F)c3)ccc2ncn1C[C@@H](O)CC1NCCC[C@@H]1O (stereo partly drawn) [Example 24, 6-(3-Fluorophenyl)-3-{(2S)-2-hydroxy-3-[(3S)-3-hydroxypiperidin-2-yl]propyl}pyrido[3,2-d]pyrimidin-4(3H)-one dihydrochloride]"
8,25,"O=c1c2nc(-c3ccc(F)c(F)c3)ccc2ncn1C[C@@H](O)C[C@H]1NCCC[C@@H]1O [Example 25, 6-(3,4-Difluorophenyl)-3-{(S)-2-hydroxy-3-[(2R,3S)-3-hydroxypiperidin-2-yl]propyl}pyrido[3,2-d]pyrimidin-4(3H)-one dihydrochloride]"
9,80,"O=c1c2cnccc2ncn1C[C@@H](O)C[C@H]1NCCC[C@@H]1O [Example 26, 3-{(S)-2-Hydroxy-3-[(2R,3S)-3-hydroxypiperidin-2-yl]propyl}pyrido[4,3-d]pyrimidin-4(3H)-one dihydrochloride]"
10,172,"Cc1cc(-c2ccc(F)c(F)c2)nc2c(=O)n(C[C@@H](O)C[C@H]3NCCC[C@@H]3O)cnc12 [Example 27, 6-(3,4-difluorophenyl)-3-((S)-2-hydroxy-3-((2R,3S)-3-hydroxypiperidin-2-yl)propyl)-8-methylpyrido[3,2-d]pyrimidin-4(3H)-one dihydrochloride]"
11,27,"Cc1cc(-c2cccc(C(F)(F)F)c2)nc2c(=O)n(C[C@@H](O)C[C@H]3NCCC[C@@H]3O)cnc12 [Example 28, 3-{(2S)-2-hydroxy-3-[(2R,3S)-3-hydroxy-2-piperidyl]propyl}-8-methyl-6-[3-(trifluoromethyl)phenyl]pyrido[3,2-d]pyrimidin-4-one;dihydrochloride]"
12,103,"O=c1c2nc(-c3cccnc3)ccc2ncn1C[C@@H](O)C[C@H]1NCCC[C@@H]1O [Example 29, 3-{(S)-2-hydroxy-3-[(2R,3S)-3-hydroxypiperidin-2-yl]propyl}-6-(pyridin-3-yl)pyrido[3,2-d]pyrimidin-4(3H)-one 2,2,2-trifluoroacetate]"
13,425,"Cc1cc(C2CC2)nc2c(=O)n(C[C@@H](O)C[C@H]3NCCC[C@@H]3O)cnc12 [Example 30, 6-cyclopropyl-3-{(S)-2-hydroxy-3-[(2R,3S)-3-hydroxypiperidin-2-yl]propyl}-8-methylpyrido[3,2-d]pyrimidin-4(3H)-one dihydrochloride]"
14,79,"Cc1cc(-c2cccc(F)c2)nc2c(=O)n(C[C@@H](O)C[C@H]3NCCC[C@@H]3O)cnc12 [Example 32, 6-{(3-fluorophenyl)-3-[(S)-2-hydroxy-3-(2R,3S)-3-hydroxypiperidin-2-yl-propyl)-8-methylpyrido[3,2-d]}pyrimidin-4(3H)-one dihydrochloride]"
15,23,"Cc1cc(-c2cccc(Cl)c2)nc2c(=O)n(C[C@@H](O)C[C@H]3NCCC[C@@H]3O)cnc12 [Example 33, 6-(3-chlorophenyl)-3-{(S)-2-hydroxy-3-[(2R,3S)-3-hydroxypiperidin-2-yl]propyl}-8-methylpyrido[3,2-d]pyrimidin-4(3H)-one dihydrochloride]"
16,290,"Cc1cc(-c2cccnc2)nc2c(=O)n(C[C@@H](O)C[C@H]3NCCC[C@@H]3O)cnc12 [Example 34, 3-{(S)-2-hydroxy-3-[(2R,3S)-3-hydroxypiperidin-2-yl]propyl}-8-methyl-6-(pyridin-3-yl)pyrido[3,2-d]pyrimidin-4(3H)-one trihydrochloride]"
17,1390,"Cc1cc(C(C)C)cc2c(=O)n(C[C@@H](O)C[C@@H]3CCCCN3)cnc12 [Example 35, 3-{(S)-2-hydroxy-3-[(S)-piperidin-2-yl]-propyl}-6-isopropyl-8-methylquinazolin-4(3H)-one hydrochloride]"
18,2180,"Cc1cc(C)c2ncn(C[C@@H](O)C[C@@H]3CCCCN3)c(=O)c2n1 [Example 36, 3-{(S)-2-hydroxy-3-[(S)-piperidin-2-yl]propyl}-6,8-dimethylpyrido[3,2-d]pyrimidin-4(3H)-one dihydrochloride]"
19,> 10000,"Cc1cc(C)c2ncn(C[C@@H](O)C[C@H]3NCC[C@@H]3O)c(=O)c2n1 [Example 37, 3-{(S)-2-hydroxy-3-[(2R,3S)-3-hydroxypyrrolidin-2-yl]propyl}-6,8-dimethylpyrido(3,2-d)pyrimidin-4(3H)-one bis (2,2,2-trifluoroacetic acid)]"
20,2300,"O=c1c2cnccc2ncn1C[C@@H](O)C[C@H]1NCC[C@@H]1O [Example 38, 3-{(S)-2-hydroxy-3-[(2R,3S)-3-hydroxypyrrolidin-2-yl]-propyl}pyrido[4,3-d]pyrimidin-4(3H)-one bis (2,2,2-trifluoroacetic acid)]"
21,2730,"Cc1cc(-c2cccc(F)c2)cn2c(=O)c(NC(=O)C[C@H]3NCCC[C@@H]3O)cnc12 [Example 40, N-(7-(3-fluorophenyl)-9-methyl-4-oxo-4H-pyrido[1,2-a]pyrimidin-3-yl)-2-((2R,3S)-3-hydroxypiperidin-2-yl)acetamide 2,2,2-trifluoroacetic acid]"
22,> 8000,"Cc1cc(C(F)(F)F)cn2c(=O)c(NC(=O)C[C@H]3NCCC[C@@H]3O)cnc12 [Example 41, 2-((2R,3S)-3-hydroxypiperidin-2-yl)-N-(9-methyl-4-oxo-7-(trifluoromethyl)-4H-pyrido[1,2-a]pyrimidin-3-yl)acetamide 2,2,2-trifluoroacetic acid]"
